3 compounds from patent US20080280862A1, “Methods, compositions, and kits for the treatment of pain” (priority 2007, published 2008) can be followed below.

The structures appear in SMILES notation.

One assay concerns TNFα. The assay can be described thus: TNFα secretion by human white blood cells stimulated with PMA/ionomycin, synergy score. Format: cell-based. The arrangement: key: S = Σ Idata(Idata−ILoewe) × ln dilution factors; volume over Loewe additivity. As to conditions: PBMC stimulated with PMA/Ionomycin. The protocol: A 100 μl suspension of diluted human white blood cells contained within each well of a polystyrene 384-well plate (NalgeNunc) was stimulated to secrete TNFα by treatment with a final concentration of 10 ng/mL phorbol 12-myristate 13-acetate (Sigma, P-1585) and 750 ng/mL ionomycin (Sigma, I-0634). Various concentrations of each test compound were added at the time of stimulation. After 16-18 hours of incubation at 37° C. in a humidified incubator, the plate was centrifuged and the supernatant transferred to a white opaque polystyrene 384-well plate (NalgeNunc, Maxisorb) coated with an anti-TNFα antibody (PharMingen, #551220). After a two-hour incubation, the plate was washed (Tecan PowerWasher 384) with PBS containing 0.1% Tween 20 and incubated for an additional one hour with another anti-TNFα antibody that was biotin labeled (PharMingen, #554511) and HRP coupled to strepavidin (PharMingen, #13047E). After the plate was washed with 0.1% Tween 20/PBS, an HRP-luminescent substrate was added to each well and light intensity measured using a LJL Analyst plate luminometer.
The synergy scores calculated for the various combinations of compounds set forth in Table 3 was calculated by the formula S=log fX log fYΣIdata(Idata−ILoewe), summed over all non-single-agent concentration pairs, and where log fX,Y are the natural logarithm of the dilution factors used for each single agent. This effectively calculates a volume between the measured and Loewe additive response surfaces, weighted towards high inhibition and corrected for varying dilution factors.

The subject of assay [1] is carrageenan-induced pain model in rats. Nature of the assay: Carrageenan pain model, mechanical allodynia by Von Frey filaments. Format: in vivo, Sprague-Dawley rats. The settings on record: for Mean change from baseline ± SEM: 25 mg/kg; for mean change from baseline: Table 4, 25 mg/kg ip. How it is done:
The carrageenan model is a fast, reliable model used to assess the ability of analgesics to block inflammatory pain. The analgesic effects of test article combinations on pain generation are assayed using the carrageenan-induced pain model in rats. Adult male Sprague-Dawley rats are administered study drugs intraperitoneally (vehicle, tricyclic compound (TCA), steroid or TCA/Steroid test article combinations) once daily for 2 days (day −2 and day −1) and 30 minutes prior to the carrageenan injection on day 0 (time=0). For the carrageenan injection, animals are lightly anesthetized and 0.1 ml of 2% carrageenan is injected into the plantar surface of the right hind paw. The positive control diclofenac at a dose of 25 mg/kg is administered intraperitoneally immediately before the carrageenan injection. Paw volumes (right and left) are measured using a plathysmometer before drug administration on day −2 and serve as a baseline measurement. The paw volumes are measured again two hours post carrageenan injection. The degree of mechanical allodynia is measured by a blinded observer using Von Frey filaments applied to the plantar surface of the hind paws in an increasing numerical order. Each filament increases the force applied on the paw. The filaments are applied until animal paw withdrawal is achieved. This procedure is carried out before drug administration (day −2), on day −1 and on day 0 at time=0, 20, 40, 60, 80 and 120 minutes post-carrageenan. The force (expressed in grams) required for paw withdrawal after carrageenan injection is subtracted from the force required for paw withdrawal before carrageenan injection. Results are expressed as mean change from baseline across five timepoints post carrageenan injection in Table 4.
For a synergy calculation, experimental data from the carrageenan study are fitted to a median-effect model and used to calculate the parameters' median-effect dose (Dm), slope (m), correlation coefficient (r), combination index (CI) and dose-reduction index (DRI). In addition, the probability of pain inhibition occurring after single-component (nortriptyline) versus the combination drug treatments are calculated from the negative change from baseline data using a Bayesian sensitivity analysis. The likelihood of pain inhibition is characterized for nortriptyline administered alone (1 mg/kg or 3 mg/kg) versus the fixed-dose combination treatments [prednisolone (0.3 mg/kg):nortriptyline (1 mg/kg) or prednisolone (1 mg/kg):nortriptyline (3 mg/kg)] each evaluated at 60 and 80 minutes for analgesic effect.
In another example, the effects of test article combinations on pain inhibition were assayed using the carrageenan model in rodents. Desipramine was tested alone and in combination at 0.3, 1, and 3 mg/kg and prednisolone was tested similarly at 0.3, 1 and 3 mg/kg IP.

Assay [2] relates to formalin-induced pain model in rats. Nature of the assay: Formalin pain model, nociceptive behaviors. Type of assay: in vivo, Sprague-Dawley rats. As to conditions: 20 mg/kg. How it is done: The formalin model is a fast, reliable model used to assess potential analgesics ability to block inflammatory pain. The analgesic effects of test article combinations on pain generation are assayed using the formalin-induced pain model in rats. Adult male Sprague-Dawley rats are administered intraperitoneally study drugs (vehicle, TCA, steroid or TCA/Steroid test article combinations) once daily for 2 days (day −2 and day −1) and 30 minutes prior to the formalin injection day on day 0 (time=0). […] To elicit a pain response, dilute formalin (2% in saline) is injected under the skin of the plantar surface of the right hindpaw. The animal is placed in an observation chamber. The pain response is a characteristic biphasic response pattern of nociceptive behaviors (lifting, licking, and biting of the injected paw). Two distinct periods of nociceptive behaviors/activity are observed and recorded: an early phase (phase I) lasting the first 5-10 min and a late phase (phase II) lasting 20-40 min after the injection of formalin. One hour of data is collected (time spent displaying pain behavior) by a blinded observer using a stopwatch. Results are expressed as the number of pain behaviors per 5 minute periods (Table 8 and Table 9).

With `Clc1ccc2c(c1)C(N1CCNCC1)=Nc1ccccc1O2` [Amoxapine], the “Synergy Score based on TNF-α inhibition” value turned out to be 0.68 in the assay on TNFα (combination with Betamethasone); 0.63 with TNFα (combination with Budesonide); 1.3 in the assay with TNFα (combination with Dexamethasone); 0.56 in the assay on TNFα (combination with Hydrocortisone); 1.1 with TNFα (combination with Prednisolone); 0.37 in the assay with TNFα (combination with Triamcinolone).

For the compound `O=C(O)Cc1ccccc1Nc1c(Cl)cccc1Cl` [Diclofenac], the “Mean AUC ± SEM” value in assay [1] (25 mg/Kg, AUC from 20 minutes through 120 minutes following carrageenan injection) was determined as 5332 ± 772.96. In addition, the “Mean change from baseline ± SEM” value is -17.50 ± 11.24 g in assay [1] (Experiment One, 20 minutes); -74.70 ± 13.27 g in assay [1] (Experiment One, 40 minutes); -146.70 ± 16.73 g in assay [1] (Experiment One, 60 minutes); -203.30 ± 15.02 g in assay [1] (Experiment One, 80 minutes); -259.90 ± 15.14 g in assay [1] (Experiment One, 120 minutes); 5.91 ± 7.99 g in assay [1] (Experiment Two, first set of rows, 20 minutes). The “Mean change from baseline ± SEM” value in assay [1] (Experiment Two, first set of rows, 40 minutes) is 3.89 ± 5.82 g; in assay [1] (Experiment Two, first set of rows, 60 minutes), 5.94 ± 10.01 g; in assay [1] (Experiment Two, first set of rows, 80 minutes), -2.47 ± 9.56 g; in assay [1] (Experiment Two, first set of rows, 120 minutes) it was -11.26 ± 8.92 g; in assay [1] (Experiment Two, second set of rows, 20 minutes), -8.50 ± 5.56 g; in assay [1] (Experiment Two, second set of rows, 40 minutes), -12.75 ± 6.22 g. Moreover, the “Mean change from baseline ± SEM” value was -8.50 ± 8.50 g in assay [1] (Experiment Two, second set of rows, 60 minutes); -12.75 ± 6.22 g in assay [1] (Experiment Two, second set of rows, 80 minutes); -17.75 ± 6.74 g in assay [1] (Experiment Two, second set of rows, 120 minutes). Moreover, the “mean change from baseline” value in assay [1] (20 minutes post carrageenan) is listed as −17.50 ± 11.24 grams; in assay [1] (40 minutes post carrageenan) it was −74.70 ± 13.27 grams; in assay [1] (60 minutes post carrageenan), −146.70 ± 16.73 grams; in assay [1] (80 minutes post carrageenan), −203.30 ± 15.02 grams; in assay [1] (120 minutes post carrageenan) it was −259.90 ± 15.14 grams.

In the case of `CN1CC[C@]23c4c5ccc(O)c4O[C@H]2[C@@H](O)C=C[C@H]3[C@H]1C5` [Morphine], the “Mean number of behaviors per 5 minute block” value in assay [2] (Experiment One, amitriptyline, 5 minutes) came to 116.0 ± 39.2; in assay [2] (Experiment One, amitriptyline, 10 minutes) it was 19.0 ± 13.7; in assay [2] (Experiment One, amitriptyline, 15 minutes), 17.0 ± 10.4; in assay [2] (Experiment One, amitriptyline, 20 minutes) it was 53.0 ± 32.2; in assay [2] (Experiment One, amitriptyline, 25 minutes), 77.0 ± 40.2; in assay [2] (Experiment One, amitriptyline, 30 minutes) it was 65.0 ± 36.2. Besides, the “Mean number of behaviors per 5 minute block” value in assay [2] (Experiment One, amitriptyline, 35 minutes) came to 66.0 ± 34.4; in assay [2] (Experiment One, amitriptyline, 40 minutes) it was 58.0 ± 33.3; in assay [2] (Experiment One, amitriptyline, 45 minutes), 33.0 ± 22.6; in assay [2] (Experiment One, amitriptyline, 50 minutes), 11.0 ± 10.3; in assay [2] (Experiment One, amitriptyline, 55 minutes) it was 2.0 ± 1.1; in assay [2] (Experiment One, amitriptyline, 60 minutes), 1.0 ± 0.6. The “Mean number of behaviors per 5 minute block” value is 120.0 ± 25.2 in assay [2] (Experiment One, nortriptyline, 5 minutes); 7.0 ± 5.3 in assay [2] (Experiment One, nortriptyline, 10 minutes); 2.0 ± 1.5 in assay [2] (Experiment One, nortriptyline, 15 minutes); 2.0 ± 1.1 in assay [2] (Experiment One, nortriptyline, 20 minutes); 1.0 ± 0.4 in assay [2] (Experiment One, nortriptyline, 25 minutes); 0.0 ± 0.0 in assay [2] (Experiment One, nortriptyline, 30 minutes). The “Mean number of behaviors per 5 minute block” value in assay [2] (Experiment One, nortriptyline, 35 minutes) was 0.0 ± 0.4; in assay [2] (Experiment One, nortriptyline, 40 minutes), 1.0 ± 1.2; in assay [2] (Experiment One, nortriptyline, 45 minutes) it was 20.0 ± 20.0; in assay [2] (Experiment One, nortriptyline, 50 minutes), 29.0 ± 28.6; in assay [2] (Experiment One, nortriptyline, 55 minutes), 29.0 ± 29.1; in assay [2] (Experiment One, nortriptyline, 60 minutes), 55.0 ± 36.4. For the same compound, the “Mean number of behaviors per 5 minute block” value was found to be 64.0 ± 35.3 in assay [2] (Experiment Two, 5 minutes); 3.0 ± 3.0 in assay [2] (Experiment Two, 10 minutes); 0.0 ± 0.0 in assay [2] (Experiment Two, 15 minutes); 0.0 ± 0.4 in assay [2] (Experiment Two, 20 minutes); 0.0 ± 0.3 in assay [2] (Experiment Two, 25 minutes); 1.0 ± 1.1 in assay [2] (Experiment Two, 30 minutes). The “Mean number of behaviors per 5 minute block” value came out at 1.0 ± 0.9 in assay [2] (Experiment Two, 35 minutes); 0.0 ± 0.1 in assay [2] (Experiment Two, 40 minutes); 8.0 ± 8.2 in assay [2] (Experiment Two, 45 minutes); 25.0 ± 16.4 in assay [2] (Experiment Two, 50 minutes); 56.0 ± 35.9 in assay [2] (Experiment Two, 55 minutes); 51.0 ± 36.9 in assay [2] (Experiment Two, 60 minutes).
